Legend:
[1] = target: T1, Bifunctional epoxide hydrolase 2 (Homo sapiens, UniProt P34913); assay: Inhibition of recombinant human sEH preincubated for 10 mins followed by PHOME substrate addition and measured after 60 mins by fluorescence-based assay
T1 sequence (P34913 whole entry): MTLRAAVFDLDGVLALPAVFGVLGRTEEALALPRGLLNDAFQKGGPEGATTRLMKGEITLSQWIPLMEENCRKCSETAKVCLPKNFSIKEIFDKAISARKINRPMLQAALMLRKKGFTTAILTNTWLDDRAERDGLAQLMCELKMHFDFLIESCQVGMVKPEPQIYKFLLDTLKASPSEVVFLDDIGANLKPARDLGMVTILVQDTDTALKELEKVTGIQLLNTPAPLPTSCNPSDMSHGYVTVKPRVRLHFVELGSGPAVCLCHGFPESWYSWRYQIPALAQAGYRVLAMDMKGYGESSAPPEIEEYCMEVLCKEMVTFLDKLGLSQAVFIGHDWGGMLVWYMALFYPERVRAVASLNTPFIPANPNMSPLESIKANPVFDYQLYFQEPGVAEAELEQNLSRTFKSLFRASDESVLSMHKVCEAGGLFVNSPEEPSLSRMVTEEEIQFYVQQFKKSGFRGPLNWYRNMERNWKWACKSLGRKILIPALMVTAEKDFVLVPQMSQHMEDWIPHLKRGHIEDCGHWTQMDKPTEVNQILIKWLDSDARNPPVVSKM

[2] = target: T2, Arachidonate 5-lipoxygenase-activating protein (Homo sapiens, UniProt P20292); assay: Inhibition of 5-LO in human neutrophils preincubated for 10 mins followed by Ca2+ ionophore A23187 addition and measured after 10 mins by RP-HPLC analysis
T2 sequence (P20292 whole entry): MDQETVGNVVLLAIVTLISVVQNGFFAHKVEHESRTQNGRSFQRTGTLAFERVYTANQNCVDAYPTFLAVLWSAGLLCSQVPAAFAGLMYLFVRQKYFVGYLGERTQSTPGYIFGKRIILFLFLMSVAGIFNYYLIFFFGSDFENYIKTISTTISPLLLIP

SMILES | IC50 [1] [nM] | IC50 [2] [nM]
O=C(Nc1ccc(OCc2nc3ccccc3s2)cc1)Nc1cc(Cl)cc(Cl)c1 | 15.2 | 90
Cc1cc(NC(=O)Nc2ccccc2Cl)ccc1OCc1nc2ccccc2s1 | 35.1 | 680
O=C(Nc1ccc(OCc2nc3ccccc3s2)cc1)Nc1ccccc1Cl | 279 | 360
O=C(Nc1ccc(CCc2nc3ccccc3s2)cc1)Nc1ccc(Cl)c(Cl)c1 | 11.7 | > 10000
Cc1cc(NC(=O)Nc2cccc(Cl)c2)ccc1OCc1nc2ccccc2s1 | 2 | 2090
Cc1cc(NC(=O)Nc2ccc(Cl)cc2)ccc1OCc1nc2ccccc2s1 | 4.1 | > 10000
O=C(Nc1ccc(OCc2nc3ccccc3s2)cc1)Nc1cccc(Cl)c1 | 25.9 | 170
Cc1cc(NC(=O)Nc2ccc(Cl)c(Cl)c2)ccc1OCc1nc2ccccc2s1 | 0.6 | 2170
Cc1cc(OCc2nc3ccccc3s2)ccc1NC(=O)Nc1cccc(Cl)c1 | 15.8 | 160
O=C(Nc1ccc(/C=C/c2nc3ccccc3s2)cc1)Nc1ccc(Cl)c(Cl)c1 | 9.1 | 10800
Cc1cc(OCc2nc3ccccc3s2)ccc1NC(=O)Nc1ccccc1Cl | 1500 | 830
Cc1cc(OCc2nc3ccccc3s2)ccc1NC(=O)Nc1cc(Cl)cc(Cl)c1 | 20 | 80
O=C(Nc1ccc(SCc2nc3ccccc3s2)cc1)Nc1ccc(Cl)c(Cl)c1 | 25.2 | 1130
Cc1cc(OCc2nc3ccccc3s2)ccc1NC(=O)Nc1ccccc1 | 61.9 | 730
Cc1cc(OCc2nc3ccccc3s2)ccc1NC(=O)Nc1ccc(Cl)cc1 | 5.2 | 570
O=C(Nc1ccccc1)Nc1ccc(OCc2nc3ccccc3s2)cc1 | 111 | 420
O=C(Nc1ccc(OCc2nc3ccccc3s2)cc1)Nc1ccc(Cl)c(Cl)c1 | 10.3 | 570
Cc1cc(OCc2nc3ccccc3s2)ccc1NC(=O)Nc1ccc(Cl)c(Cl)c1 | 23 | –
Cc1cc(NC(=O)Nc2cc(Cl)cc(Cl)c2)ccc1OCc1nc2ccccc2s1 | 0.8 | 720
Cc1cc(NC(=O)Nc2ccccc2)ccc1OCc1nc2ccccc2s1 | 6.5 | 2070
O=C(Nc1ccc(Cl)cc1)Nc1ccc(OCc2nc3ccccc3s2)cc1 | 13.9 | 1010
